PubChem BioAssay AID256 (DTP/NCI, 2004)
“And” between values parts separate entries of the source, which are not always exact repeats. Identical values can stand only once. Toxic doses and inconclusive results are not listed. Rule for the calls: active = survival T/C of 150% or more; inactive = T/C below 125% in these data.

Tested on: CD2F1 mice, L1210 leukemia ip, survival T/C
Test: NCI In Vivo Anticancer Drug Screen. Data for tumor model L1210 Leukemia (intraperitoneal) in CD2F1 (CDF1) mice
Details: higher = longer survival
Summary of the method: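 In this screen, transplantable tumors were grown in mice given either the compound or its vehicle. Results were expressed as the treated measurement relative to the control measurement.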

[1] = endpoint: mean survival time, dose: 100.0 mg/kg/injection, schedule: Q01DX009 (ip), vehicle: saline with Tween-80
[2] = endpoint: mean survival time, dose: 200.0 mg/kg/injection, schedule: Q01DX009 (ip), vehicle: saline with Tween-80
[3] = endpoint: mean survival time, dose: 400.0 mg/kg/injection, schedule: Q01DX009 (ip), vehicle: saline with Tween-80
[4] = endpoint: mean survival time, dose: 100.0 mg/kg/injection, schedule: Q04DX003 (ip), vehicle: saline with Tween-80
[5] = endpoint: mean survival time, dose: 100.0 mg/kg/injection, schedule: Q01DX001 (ip), vehicle: saline with Tween-80

Measured: T/C

O=C1[C@@H]2C3C=CC([C@H]4C(=O)N(CO)C(=O)[C@@H]34)[C@@H]2C(=O)N1CO
inactive: endpoint: median survival time, dose: 25.0 mg/kg/injection, schedule: Q01DX005 (ip), vehicle: Klucel (hydroxypropylcellulose) (HPC) 107 % of control | endpoint: median survival time, dose: 50.0 mg/kg/injection, schedule: Q01DX005 (ip), vehicle: Klucel (hydroxypropylcellulose) (HPC) 109 % of control | endpoint: median survival time, dose: 200.0 mg/kg/injection, schedule: Q01DX005 (ip), vehicle: Klucel (hydroxypropylcellulose) (HPC) 101 % of control

O=C(Nc1cc([N+](=O)[O-])ccc1F)N(CCO)C1CCCCC1
inactive: [1] 98 % of control | [2] 98 % of control | [3] 103 % of control

CNC(C)COc1ccccc1 (stereo not given)
inactive: [4] 86 % of control

CN(C)c1ccc(/C=N/NC(=O)CNC(=O)Nc2cccc([N+](=O)[O-])c2)c(Cl)c1
inactive: endpoint: mean survival time, dose: 50.0 mg/kg/injection, schedule: Q01DX009 (ip), vehicle: saline with Tween-80 88 % of control

C[N+]1(C)CCc2cc(O)c(O)cc2C1Cc1ccc(O)c(O)c1 (stereo not given)
inactive: endpoint: mean survival time, dose: 75.0 mg/kg/injection, schedule: Q01DX001 (ip), vehicle: saline 102 % of control

Cc1ccc2c(c1)CC(C)(C)O2
inactive: endpoint: mean survival time, dose: 50.0 mg/kg/injection, schedule: Q01DX001 (ip), vehicle: Klucel (hydroxypropylcellulose) (HPC) 102 % of control | endpoint: mean survival time, dose: 100.0 mg/kg/injection, schedule: Q01DX001 (ip), vehicle: Klucel (hydroxypropylcellulose) (HPC) 93 % of control | endpoint: mean survival time, dose: 200.0 mg/kg/injection, schedule: Q01DX001 (ip), vehicle: Klucel (hydroxypropylcellulose) (HPC) 102 % of control

COC1=C(c2ccccc2)/C(=C/c2ccccc2)OC1=O
inactive: [5] 104 % of control | endpoint: mean survival time, dose: 200.0 mg/kg/injection, schedule: Q01DX001 (ip), vehicle: saline with Tween-80 96 % of control | endpoint: mean survival time, dose: 400.0 mg/kg/injection, schedule: Q01DX001 (ip), vehicle: saline with Tween-80 93 % of control

CCOC(=O)NP(=O)(N1CC1(C)C)N1CC1(C)C (stereo not given)
active: endpoint: mean survival time, dose: 45.0 mg/kg/injection, schedule: Q01DX009 (ip), vehicle: saline 170 % of control | endpoint: mean survival time, dose: 90.0 mg/kg/injection, schedule: Q01DX009 (ip), vehicle: saline 232 % of control | endpoint: mean survival time, dose: 180.0 mg/kg/injection, schedule: Q01DX009 (ip), vehicle: saline 261 % of control

C/C(=N\N=C(N)N)c1ccc(NC(=O)Nc2ccc(/C(C)=N/N=C(N)N)cc2)cc1
inactive: endpoint: mean survival time, dose: 25.0 mg/kg/injection, schedule: Q01DX009 (sc), vehicle: saline 101 % of control | endpoint: mean survival time, dose: 50.0 mg/kg/injection, schedule: Q01DX009 (sc), vehicle: saline 107 % of control | endpoint: mean survival time, dose: 100.0 mg/kg/injection, schedule: Q01DX001 (sc), vehicle: saline 101 % of control | endpoint: mean survival time, dose: 100.0 mg/kg/injection, schedule: Q01DX009 (oral), vehicle: saline 98 % of control | endpoint: mean survival time, dose: 100.0 mg/kg/injection, schedule: Q01DX009 (sc), vehicle: saline 102 % of control | endpoint: mean survival time, dose: 200.0 mg/kg/injection, schedule: Q01DX001 (oral), vehicle: saline 103 % of control | endpoint: mean survival time, dose: 200.0 mg/kg/injection, schedule: Q01DX001 (sc), vehicle: saline 102 % of control | endpoint: mean survival time, dose: 200.0 mg/kg/injection, schedule: Q01DX007 (ip), vehicle: saline 90 % of control | endpoint: mean survival time, dose: 200.0 mg/kg/injection, schedule: Q01DX009 (oral), vehicle: saline 88 % of control | endpoint: mean survival time, dose: 200.0 mg/kg/injection, schedule: Q01DX009 (sc), vehicle: saline 119 % of control | endpoint: mean survival time, dose: 400.0 mg/kg/injection, schedule: Q01DX001 (oral), vehicle: saline 101 % of control | endpoint: mean survival time, dose: 400.0 mg/kg/injection, schedule: Q01DX001 (sc), vehicle: saline 105 % of control | endpoint: mean survival time, dose: 400.0 mg/kg/injection, schedule: Q01DX009 (oral), vehicle: saline 116 % of control | endpoint: mean survival time, dose: 800.0 mg/kg/injection, schedule: Q01DX001 (oral), vehicle: saline 102 % of control | endpoint: mean survival time, dose: 800.0 mg/kg/injection, schedule: Q01DX001 (sc), vehicle: saline 105 % of control | endpoint: mean survival time, dose: 800.0 mg/kg/injection, schedule: Q01DX009 (oral), vehicle: saline 98 % of control | endpoint: mean survival time, dose: 1600.0 mg/kg/injection, schedule: Q01DX001 (oral), vehicle: saline 102 % of control
active: endpoint: mean survival time, dose: 25.0 mg/kg/injection, schedule: Q01DX005 (ip), vehicle: saline 155 % of control | endpoint: mean survival time, dose: 25.0 mg/kg/injection, schedule: Q01DX009 (ip), vehicle: saline 155 % of control | endpoint: mean survival time, dose: 50.0 mg/kg/injection, schedule: Q01DX005 (ip), vehicle: saline 185 % of control | endpoint: mean survival time, dose: 50.0 mg/kg/injection, schedule: Q01DX007 (ip), vehicle: saline 152 % of control | endpoint: mean survival time, dose: 50.0 mg/kg/injection, schedule: Q01DX009 (ip), vehicle: saline 154 % of control and 188 % of control | endpoint: mean survival time, dose: 100.0 mg/kg/injection, schedule: Q01DX005 (ip), vehicle: saline 223 % of control | endpoint: mean survival time, dose: 100.0 mg/kg/injection, schedule: Q01DX007 (ip), vehicle: saline 225 % of control | endpoint: mean survival time, dose: 100.0 mg/kg/injection, schedule: Q01DX009 (ip), vehicle: saline 250 % of control and 314 % of control | endpoint: mean survival time, dose: 100.0 mg/kg/injection, schedule: Q03DX003 (ip), vehicle: saline 154 % of control | endpoint: mean survival time, dose: 100.0 mg/kg/injection, schedule: Q04DX003 (ip), vehicle: saline 163 % of control | endpoint: mean survival time, dose: 100.0 mg/kg/injection, schedule: Q## X024 (ip), vehicle: saline 160 % of control | endpoint: mean survival time, dose: 200.0 mg/kg/injection, schedule: Q01DX001 (ip), vehicle: saline 155 % of control | endpoint: mean survival time, dose: 200.0 mg/kg/injection, schedule: Q01DX009 (ip), vehicle: saline 217 % of control | endpoint: mean survival time, dose: 200.0 mg/kg/injection, schedule: Q03DX003 (ip), vehicle: saline 186 % of control | endpoint: mean survival time, dose: 200.0 mg/kg/injection, schedule: Q03HX008 (ip), vehicle: saline 152 % of control | endpoint: mean survival time, dose: 200.0 mg/kg/injection, schedule: Q04DX003 (ip), vehicle: saline 156 % of control and 200 % of control | endpoint: mean survival time, dose: 200.0 mg/kg/injection, schedule: Q08DX002 (ip), vehicle: saline 172 % of control | endpoint: mean survival time, dose: 200.0 mg/kg/injection, schedule: Q## X016 (ip), vehicle: saline 198 % of control | endpoint: mean survival time, dose: 200.0 mg/kg/injection, schedule: Q## X024 (ip), vehicle: saline 230 % of control | endpoint: mean survival time, dose: 400.0 mg/kg/injection, schedule: Q01DX001 (ip), vehicle: saline 180 % of control | endpoint: mean survival time, dose: 400.0 mg/kg/injection, schedule: Q03HX008 (ip), vehicle: saline 179 % of control | endpoint: mean survival time, dose: 400.0 mg/kg/injection, schedule: Q04DX003 (ip), vehicle: saline 325 % of control | endpoint: mean survival time, dose: 400.0 mg/kg/injection, schedule: Q08DX002 (ip), vehicle: saline 225 % of control | endpoint: mean survival time, dose: 400.0 mg/kg/injection, schedule: Q## X016 (ip), vehicle: saline 284 % of control | endpoint: mean survival time, dose: 400.0 mg/kg/injection, schedule: Q## X024 (ip), vehicle: saline 374 % of control | endpoint: mean survival time, dose: 800.0 mg/kg/injection, schedule: Q01DX001 (ip), vehicle: saline 206 % of control | endpoint: mean survival time, dose: 800.0 mg/kg/injection, schedule: Q04DX003 (ip), vehicle: saline 294 % of control | endpoint: mean survival time, dose: 800.0 mg/kg/injection, schedule: Q08DX002 (ip), vehicle: saline 217 % of control | endpoint: mean survival time, dose: 800.0 mg/kg/injection, schedule: Q## X016 (ip), vehicle: saline 235 % of control

O=C(CCc1ccc(O)cc1)ON1C(=O)CCC1=O
inactive: endpoint: mean survival time, dose: 50.0 mg/kg/injection, schedule: Q01DX009 (ip), vehicle: Klucel (hydroxypropylcellulose) (HPC) 105 % of control

Cc1ccccc1OS(=O)(=O)c1ccccc1
inactive: endpoint: mean survival time, dose: 100.0 mg/kg/injection, schedule: Q01DX009 (ip), vehicle: acetone 98 % of control | endpoint: mean survival time, dose: 100.0 mg/kg/injection, schedule: Q04DX003 (ip), vehicle: acetone 100 % of control | endpoint: mean survival time, dose: 200.0 mg/kg/injection, schedule: Q01DX009 (ip), vehicle: acetone 98 % of control | endpoint: mean survival time, dose: 200.0 mg/kg/injection, schedule: Q04DX003 (ip), vehicle: acetone 94 % of control | endpoint: mean survival time, dose: 400.0 mg/kg/injection, schedule: Q01DX009 (ip), vehicle: acetone 96 % of control | endpoint: mean survival time, dose: 400.0 mg/kg/injection, schedule: Q04DX003 (ip), vehicle: acetone 96 % of control

Cc1ccc(S(=O)(=O)N/N=C2\CC3CCC2C3)cc1 (stereo not given)
inactive: [1] 90 % of control and 105 % of control | [2] 96 % of control and 100 % of control | [3] 93 % of control and 96 % of control

CC(C)(C)NC(=O)CCC1C2C=CC(C2)C1C#N (stereo not given)
inactive: [4] 93 % of control | endpoint: mean survival time, dose: 200.0 mg/kg/injection, schedule: Q04DX003 (ip), vehicle: saline with Tween-80 91 % of control | endpoint: mean survival time, dose: 400.0 mg/kg/injection, schedule: Q04DX003 (ip), vehicle: saline with Tween-80 98 % of control

C=C1CC(Cc2ccccc2)OC1=O (stereo not given)
inactive: endpoint: mean survival time, dose: 25.0 mg/kg/injection, schedule: Q01DX001 (ip), vehicle: saline with Tween-80 96 % of control | endpoint: mean survival time, dose: 50.0 mg/kg/injection, schedule: Q01DX001 (ip), vehicle: saline with Tween-80 101 % of control | [5] 101 % of control
